# Data taken from patent US20040175782A1, “Biotransformation of compounds using non-prokaryotic microalgae” (TETHYS RESEARCH LLC, priority 2003, published 2004).
# Assays:
# [1] = tested on: Chlorella; assay: growth (cell counts) of microalgae in the presence of precursor compound; assay type: cell-based, Chlorella minutisima; details: 100 μg/ml, cell counts on days 0, 2, 4 and 7, relative to growth controls
# Description: (§1) Three 15 ml cultures of each of the microalgae listed in Table III above were grown in 30 ml flasks. Growth control cultures contained algae and medium only. Growth control cultures in the presence of solvent contained algae, medium, and 0.06 ml of methanol, the solvent chosen for the precursor compound. Experimental cultures contained algae, medium, and 0.06 ml of a 25 mg/ml solution of (S)-(−)-3-(Benzyloxycarbonyl)-4-oxazolidinecarboxylic acid (precursor compound) dissolved in methanol, yielding a final concentration of 100 μg/ml. Cell counts were performed using a haemocytometer on days 0, 2, 4 and 7.
# as §1, with “VIII” for “III”, “Precursor 2.” for “the precursor compound.”, “tert-butyl[S-(R*-R*)]-(−)-(1-oxiranyl-2-phenylethylcarbamate)” for “(S)-(−)-3-(Benzyloxycarbonyl)-4-oxazolidinecarboxylic acid”, “concentration in the culture medium” for “concentration”
# [2] = tested on: Moromastix sp.; assay: final biotransformation culture, 7 days in the presence of precursor; assay type: cell-based; details: 200 μg/ml precursor, starting cell concentration 6.16 × 10^5
# Description: (§2) Table V below lists each microalgae in the final panel, its starting cell concentration, the concentration of precursor compound in the growth medium, the starting and final cell count, and the method of separation of the resulting biomass from the culture supernatant. The final panel of algal strains were grown for 7 days under the conditions listed in Table III above in the presence of the precursor compound prior to separation of the resulting biomass from the culture supernatant.
# [3] = tested on: Cryptocrysis rubens; assay: as above; assay type: cell-based; details: 200 μg/ml precursor, starting cell concentration not determined
# Description: as §2
# [4] = tested on: Chloromonas rosae; assay: as above; assay type: cell-based; details: 100 μg/ml precursor, starting cell concentration 1.75 × 10^5
# Description: as §2
# [5] = tested on: Olithodiscus sp.; assay: as above; assay type: cell-based; details: 50 μg/ml precursor, starting cell concentration 1.09 × 10^6
# Description: (§3) Table V below lists each microalgae in the final panel, its starting cell concentration, the concentration of precursor compound in the growth medium, the starting and final cell count, and the method of separation of the resulting biomass from the culture supernatant. The final panel of algal strains were grown for 7 days under the conditions listed in Table III above in the presence of the precursor compound prior to separation of the resulting biomass from the culture supernatant. Cell counts were not determined in every case for the strains listed in Table V. Table X below lists each microalgae in the final panel, its starting cell concentration, the concentration of precursor compound in the growth medium, the starting and final cell count, and the method of separation of the resulting biomass from the culture supernatant. The final panel of algal strains was grown for 7 days under the conditions listed in Table VIII above in the presence of Precursor 2 prior to separation of the resulting biomass from the culture supernatant.
# [6] = tested on: Euglena gracilis; assay: as above; assay type: cell-based; details: 100 μg/ml precursor, starting cell concentration not determined
# Description: as §3
# [7] = tested on: Phaeodactylum tricornutum; assay: as above; assay type: cell-based; details: 200 μg/ml precursor, starting cell concentration 1.18 × 10^6
# Description: as §3
# [8] = tested on: Chlorella minutisima; assay: as above; assay type: cell-based; details: 100 μg/ml precursor, starting cell concentration 1.52 × 10^6
# Description: as §3
# [9] = tested on: Scenedesmus obliquus; assay: as above; assay type: cell-based; details: 200 μg/ml precursor, starting cell concentration 6.38 × 10^6
# Description: as §3
# [10] = tested on: Chlamydomonas reinhardtii; assay: as above; assay type: cell-based; details: 200 μg/ml precursor, starting cell concentration 2.2 × 10^7
# Description: as §3
# [11] = tested on: Cryptomonas ovata; assay: as above; assay type: cell-based; details: 200 μg/ml precursor, starting cell concentration not determined
# Description: as §3
# [12] = tested on: Botrydium; assay: growth (cell counts) of microalgae in the presence of precursor compound; assay type: cell-based; details: 100 μg/ml, cell counts on days 0, 2, 4 and 7, relative to growth controls
# Description: as §1
# [13] = tested on: Chlamydomonas; assay: as above; assay type: cell-based, Chlamydomonas reinhardtii; details: 100 μg/ml, cell counts on days 0, 2, 4 and 7, relative to growth controls
# Description: as §1
# [14] = tested on: Platymonas; assay: as above; assay type: cell-based, Platymonas sp.; details: 100 μg/ml, cell counts on days 0, 2, 4 and 7, relative to growth controls
# Description: as §1
# [15] = tested on: Phaeodactylum; assay: as above; assay type: cell-based, Phaeodactylum tricornutum; details: 100 μg/ml, cell counts on days 0, 2, 4 and 7, relative to growth controls
# Description: as §1
# as §1, with “VIII” for “III”, “Precursor 2.” for “the precursor compound.”, “tert-butyl[S-(R*-R*)]-(−)-(1-oxiranyl-2-phenylethylcarbamate)” for “(S)-(−)-3-(Benzyloxycarbonyl)-4-oxazolidinecarboxylic acid”, “concentration in the culture medium” for “concentration”
smiles,measurement,setting,value
"O=C(O)[C@@H]1COCN1C(=O)OCc1ccccc1 [precursor compound, (S)-(−)-3-(Benzyloxycarbonyl)-4-oxazolidinecarboxylic acid]",effect on growth of Chlorella,[1],increased growth relative to the growth controls
same,effect on growth of Chlorella,[1]; listed as Precursor 2 used in Example 1,negatively affected
same,Final Cell Concentration,[2],7.4 × 10^5
same,Final Cell Concentration,[3],3.09 × 10^6
same,Final Cell Concentration,[4],1.13 × 10^6
same,Final Cell Concentration,[5],1.3 × 10^6
same,Final Cell Concentration,[6],6.6 × 10^5
same,Final Cell Concentration,[7],4.08 × 10^6
same,Final Cell Concentration,[8],1.08 × 10^7
same,Final Cell Concentration,[9],2.12 × 10^7
same,Final Cell Concentration,[10],1.58 × 10^9
same,Final Cell Concentration,[11],1.3 × 10^5
same,effect on growth of Botrydium,[12],increased growth relative to the growth controls
same,effect on growth of Chlamydomonas,[13],"moderate, but not severe decreases in growth relative to the growth controls"
same,effect on growth of Platymonas,[14],causing cell death
same,effect on growth of Phaeodactylum,[15],"moderate, but not severe decreases in growth relative to the growth controls"
